{"source": "paper PMC8617031", "about": "“Development of a BCL-xL and BCL-2 dual degrader with improved anti-leukemic activity,” (Nature Communications, 2021)", "key": {"human platelets": {"system": "human platelets", "assay": "Viability (MTS) of human platelets", "format": "cell-based", "settings": "Supplementary Fig. 12b", "procedure": "For the viability assays in human platelets, human platelet-rich plasma (PRP) was purchased from Zenbio (cat. no. SER-PRP-SDS). PRP was used for experiments immediately after delivery. PRP was transferred into 50-ml polypropylene tubes, each containing 5 ml acid citrate buffer (cat. no. sc-214744, Santa Cruz Biotechnology). […] After gently mixing the solution, platelets were pelleted by centrifugation at 1200 × g for 10 min. Pelleted platelets were gently washed without disruption in 2 ml HEPES-buffered Tyrode’s solution (10 mM HEPES, 135 mM NaCl, 2.8 mM KCl, 1 mM MgCl2, 2 mM CaCl2, 12 mM NaHCO3, 0.4 mM NaH2PO4, 0.25% BSA and 5.5 mM glucose, pH 7.4; cat. no. PY-921WB, Boston BioProducts) containing 1 µM PGE1 and 0.2 units ml^–1 apyrase. After washing, pellets were slowly resuspended in 10 ml HEPES-buffered Tyrode’s solution containing 1 µM PGE1 and 0.2 units ml–1 apyrase. The number of platelets was counted using a HEMAVET 950FS hematology analyzer (Drew Scientific, Inc.). For viability assays, platelet number was adjusted to 2 × 10^8 per ml in HEPES-buffered Tyrode’s solution containing 1 µM PGE1, 0.2 units ml^–1 apyrase and 10% FBS. […] After 72 h treatment, 200 µl of untreated or treated platelets were plated in each well of 96-well plates, and the viability was measured by MTS assay as described above."}, "BCL-xL": {"target": "T1, BCL-xL (Homo sapiens, UniProt Q07817)", "T1 construct": "endogenous in cells", "assay": "BCL-xL degradation by western blot in human platelets", "format": "cell-based", "settings": "Supplementary Fig. 12a", "procedure": "Cells were collected, washed once with ice-cold phosphate-buffered saline, pH 7.2 (PBS, cat. no. 20012027; Thermo Fisher Scientific) and lysed in RIPA lysis buffer (Cat. No. BP-115DG, Boston Bio Products, Ashland, MA, USA) supplemented with protease and phosphatase inhibitor cocktails (Cat. No. PPC1010, Sigma-Aldrich, St. Louis, MO, USA) through sonication. The samples were centrifuged at 14,000 r.p.m. for 5 min and the supernatants were transferred into a new tube. The protein concentration in the supernatants was determined using the Pierce BCA protein Assay kit (cat. no. 23225, Thermo Fisher Scientific). The protein concentration was normalized, and the samples were reduced in 4× Laemmli’s SDS-sample buffer (cat. no. BP-110R, Boston Bio Products) and denatured at 95 °C for 5 min. […] Following sufficient washing with TBST, the membranes were exposed with chemiluminescent HRP substrate (cat. no. WBKLS0500, MilliporeSigma), and the signal was detected using the ChemiDoc MP Imaging System (Bio-Rad) and quantified using the ImageJ (v1.53a) software from NIH. […]"}, "Flag-BCL-2 WT or mutants": {"system": "Flag-BCL-2 WT or mutants", "assay": "Polyubiquitination assay (Flag IP, HA-Ub blot), BCL-2", "format": "cell-based, human", "settings": "293T cells, MG132 10 µM pretreatment, 753b 1 uM, 5 h", "excerpt": "K16-only, K20-only, and K87-only represent that all the surface lysines on BCL-xL are mutated to arginines except K16, K20, and K87, respectively. Representative immunoblots of Flag-BCL-xL WT and mutants are shown in the top panel. […] K17R and K22R represents that K17 and K22 on BCL-2 are respectively mutated to arginine; K17/22R means both K17 and K22 on BCL-2 are mutated to arginine. Representative immunoblots of Flag-BCL-2 WT and mutants are shown in the top panel. The quantification of the relative Flag-BCL-xL or Flag-BCL-2 protein content in the immunoblots is presented as mean values ± s.e.m. (n = 3 biologically independent experiments) in the bottom panel. […] After 36 h, cells were pre-treated with MG132 (10 µM) for 2 h and then treated with or without 753b (0.1 µM for BCL-xL and 1 uM for BCL-2) for 5 h. The Flag-tagged proteins were immunoprecipitated (IP) and immunoblotted with HA or Flag antibody. The input results are shown in Supplementary Fig. 9. Data are a representative of two independent experiments. Source data are provided as a Source data file.\nProteins were extracted by using IP lysis buffer (Cat. No. 87788, Thermal Fisher Scientific) and IP was performed using Anti-FLAG M2 Magnetic Beads (Cat. No. M8823, Sigma-Aldrich) according to the manufacturer’s protocol. […]"}, "Kasumi-1 cells": {"system": "Kasumi-1 cells", "assay": "Apoptosis by Annexin-V/DAPI flow cytometry in Kasumi-1 cells", "format": "cell-based, human", "settings": "Fig. 7c-e, g", "procedure": "After treatment, cells were stained with Annexin V-FLUOS (1: 200, Cat. No. 11828681001, Roche, Little Falls, NJ, USA) at room temperature for 15 min, washed with PBS and then added DAPI (0.2 μg/mL, Cat. No. D1306, Invitrogen, Waltham, MA, USA) for apoptosis flow cytometry on Gallios (Beckman, Indianapolis, IN, USA)."}}, "data": [{"smiles": "Cc1ncsc1-c1ccc([C@H](C)NC(=O)[C@@H]2C[C@@H](O)CN2C(=O)[C@@H](NC(=O)CCCCCCC(=O)N2CCN(C[C@]3(C)CCC(c4ccc(Cl)cc4)=C(CN4CCN(c5ccc(C(=O)NS(=O)(=O)c6ccc(N[C@H](CCN7CCOCC7)CSc7ccccc7)c(S(=O)(=O)C(F)(F)F)c6)cc5)CC4)C3)CC2)C(C)(C)C)cc1", "note": "[753b]", "values": [{"measurement": "toxicity to platelets relative to ABT263", "setting": "human platelets", "value": "about three-fold less toxic to platelets than ABT263"}, {"measurement": "BCL-xL degradation in human platelets (in words)", "setting": "BCL-xL", "value": "failed to induce BCL-xL degradation in human platelets"}, {"measurement": "polyubiquitination of BCL-2 WT and mutants (in words)", "setting": "Flag-BCL-2 WT or mutants", "value": "induces polyubiquitination of WT and K22R BCL-2, but not K17R and K17/22R BCL-2"}, {"measurement": "killing of Kasumi-1 cells by induction of apoptosis (in words)", "setting": "Kasumi-1 cells", "value": "more potent than DT2216, ABT199 (a selective BCL-2 inhibitor) and ABT263 in killing Kasumi-1 cells by induction of apoptosis"}]}]}
